Assay results as given in patent publication US20250257075A1, “MACROCYCLIC INHIBITORS OF KRAS FOR THE TREATMENT OF CANCER” (Hoffmann-La Roche Inc., priority 2022, published 2025).

What was measured:
[1] = test system: AGS cells (KRAS G12D); assay: Cell viability assay, G12D; assay type: cell-based, human; conditions: 72 hrs, Cell Counting Kit-8
How it was run: (§1)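 IC50 derived by 4-parameter sigmoidal fit of CCK-8 signal (OD450−OD650, 2 h development) after 72 h compound exposure in 0.5% DMSO. Seeding density was 5,000 cells/well for NCI-H358 and 2,000 cells/well for AGS and SW620, plated overnight before dosing.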

[2] = test system: SW620 cells (KRAS G12V); assay: Cell viability assay, G12V; assay type: cell-based, human; conditions: SW620, 72 hrs, Cell Counting Kit-8
How it was run: as §1

[3] = test system: phosphorylation of ERK, KRAS G12V in SW620; assay: pERK inhibition assay, G12V; assay type: cell-based, human; conditions: SW620, 4 hours of incubation
How it was run: (§2)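 NCI-H358 (G12C), AGS (G12D) and SW620 (G12V) cells were seeded overnight at 30,000, 20,000 and 30,000 cells/well, respectively. They were then treated 4 h with compound (0.5% DMSO final), fixed, and methanol-permeabilized. pERK was detected by in-cell ELISA (anti-pERK/HRP, TMB, OD450); IC50 from a 4-parameter sigmoidal fit.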

[4] = test system: phosphorylation of ERK, KRAS G12C in NCI-H358 cells; assay: pERK inhibition assay, G12C; assay type: cell-based, human; conditions: NCI-H358, 4 hours of incubation
How it was run: as §2

[5] = target: KRAS G12D binding to BRAF (Homo sapiens, UniProt P01116+P62937, G12D); assay: KRAS-BRAF with CYPA (500 nM) interaction assay (TR-FRET), G12D; assay type: biochemical; conditions: 3 hours
KRAS G12D binding to BRAF, sequence (P01116 1-188 isoform P01116-2 G12D): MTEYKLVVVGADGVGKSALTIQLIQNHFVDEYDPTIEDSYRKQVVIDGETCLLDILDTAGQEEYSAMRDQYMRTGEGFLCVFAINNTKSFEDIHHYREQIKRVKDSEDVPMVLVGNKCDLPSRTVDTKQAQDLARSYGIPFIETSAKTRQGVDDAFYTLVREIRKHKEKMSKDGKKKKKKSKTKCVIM
KRAS G12D binding to BRAF, sequence (P62937 whole entry): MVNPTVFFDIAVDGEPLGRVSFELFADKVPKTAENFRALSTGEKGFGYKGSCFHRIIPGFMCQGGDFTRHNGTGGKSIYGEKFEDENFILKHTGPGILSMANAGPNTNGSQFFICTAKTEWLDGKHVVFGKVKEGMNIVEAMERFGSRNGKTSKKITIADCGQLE
Experimental: (§3) Kras-BRAF with CYPA (500 nM) Interaction Assay In this example, TR-FRET was also used to measure the compound or compound-CYPA dependent disruption of the KRAS G12C-BRAF complex. This protocol was also used to measure disruption of KRAS G12D or KRAS G12V binding to BRAF by a compound of the invention, respectively. […] TR-FRET signal was read on a […] microplate reader (Ex320 nm, Em 665/615 nm). Compounds that facilitate disruption of the KRAS-BRAF complex were identified as those eliciting a decrease in the TR-FRET ratio relative to DMSO control wells.

[6] = target: T1, KRAS G12C-BRAF complex (Homo sapiens, UniProt P01116+P62937, G12C); assay: KRAS-BRAF with CYPA (500 nM) interaction assay (TR-FRET), G12C; assay type: biochemical; conditions: 3 hours
T1 construct: expressed in transfected cells
T1 sequence (P01116 1-188 isoform P01116-2 G12C): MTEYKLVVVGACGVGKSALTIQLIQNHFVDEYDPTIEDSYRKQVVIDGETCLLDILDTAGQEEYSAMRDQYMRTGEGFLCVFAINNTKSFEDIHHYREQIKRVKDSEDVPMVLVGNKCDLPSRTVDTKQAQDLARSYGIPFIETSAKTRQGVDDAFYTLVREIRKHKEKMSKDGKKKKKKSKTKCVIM
T1 sequence (P62937 whole entry): as the sequence (P62937 whole entry) above
Experimental: as §3

[7] = target: KRAS G12V binding to BRAF (Homo sapiens, UniProt P01116+P62937, G12V); assay: KRAS-BRAF with CYPA (500 nM) interaction assay (TR-FRET), G12V; assay type: biochemical; conditions: 3 hours
KRAS G12V binding to BRAF, sequence (P01116 1-188 isoform P01116-2 G12V): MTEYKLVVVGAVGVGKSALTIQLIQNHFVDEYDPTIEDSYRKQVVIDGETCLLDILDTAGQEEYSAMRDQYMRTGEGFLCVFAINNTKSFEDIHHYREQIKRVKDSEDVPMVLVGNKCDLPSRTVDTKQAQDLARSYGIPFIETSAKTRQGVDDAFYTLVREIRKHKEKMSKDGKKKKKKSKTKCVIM
KRAS G12V binding to BRAF, sequence (P62937 whole entry): as the sequence (P62937 whole entry) above
Experimental: as §3

[8] = test system: phosphorylation of ERK, KRAS G12D in AGS cells; assay: pERK inhibition assay, G12D; assay type: cell-based, human; conditions: 4 hours of incubation
How it was run: as §2

[9] = target: T1, KRAS G12C-BRAF complex; assay: KRAS G12C-BRAF NanoBit assay in HEK293 cells; assay type: cell-based; conditions: HEK293 stable cell pool, 3 hours of incubation
How it was run: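 HEK293 stable pool co-expressing SmBiT-KRAS G12C and BRAF RBD-LgBiT, exposed 3 h to compounds (16-point 3-fold dilution, top final 30 μM). Luminescence was read 20 min after Nano-Glo Live Cell substrate addition. A decrease versus DMSO control indicates disruption of the complex.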

[10] = test system: NCI-H358 cells (KRAS G12C); assay: Cell viability assay, G12C; assay type: cell-based, human; conditions: NCI-H358, 72 hrs, Cell Counting Kit-8
How it was run: as §1

| IC50 ([1]; Homo sapiens) [µM] | IC50 ([2]; Homo sapiens, SW-620) [µM] | IC50 ([3]; Homo sapiens, SW-620) [µM] | IC50 ([4]; Homo sapiens) [µM] | IC50 [5] [µM] | IC50 [6] [µM] | IC50 [7] [µM] | IC50 ([8]; Homo sapiens) [µM] | IC50 [9] [µM] | IC50 ([10]; Homo sapiens) [µM] | IC50 [1] [µM] | IC50 [2] [µM] | IC50 [3] [µM] | IC50 [4] [µM] | IC50 [8] [µM] | IC50 [10] [µM] | Compound |
| --- | --- | --- | --- | --- | --- | --- | --- | --- | --- | --- | --- | --- | --- | --- | --- | --- |
| 0.781 | 0.041 | 0.006 | 0.063 | 0.142 | 0.43 | > 10 | 0.509 | 0.219 | 0.123 |  |  |  |  |  |  | CO[C@@H](C)c1ncc(N2CCN(C)CC2)cc1-c1c2c3cc(c(F)cc3n1CC(F)(F)F)-c1csc(n1)C[C@H](NC(=O)[C@H](C(C)C)N(C)C(=O)c1ccc(C#CC(F)(F)F)cc1)C(=O)N1CCC[C@H](N1)C(=O)OCC(C)(C)C2 (atropisomer, axis not shown; (M)) [Example 4, N-[(1S)-1-[[(7S,13S)-24-fluoro-(20M)-20-[2-[(1S)-1-methoxyethyl]-5-(4-methylpiperazin-1-yl)-3-pyridyl]-17,17-dimethyl-8,14-dioxo-21-(2,2,2-trifluoroethyl)-15-oxa-4-thia-9,21,27,28-tetrazapentacyclo[17.5.2.1^2,5.1^9,13.0^22,26]octacosa-1(25),2,5(28),19,22(26),23-hexaen-7-yl]carbamoyl]-2-methyl-propyl]-N-methyl-4-(3,3,3-trifluoroprop-1-ynyl)benzamide] |
|  |  |  |  | 9.95 | 0.128 | 1.1 |  | 0.106 |  | 0.536 | 0.23 | < 0.001 | 0.058 | 0.145 | 0.007 | CO[C@@H](C)c1ncc(N2CCN(C)CC2)cc1-c1c2c3cc(c(F)cc3n1CC(F)(F)F)-c1csc(n1)C[C@H](NC(=O)[C@H](C(C)C)N(C)C(=O)[C@H]1C[C@@H](C#Cc3ncccn3)C1)C(=O)N1CCC[C@H](N1)C(=O)OCC(C)(C)C2 (relative stereo) [Example 5, cis-N-[(1S)-1-[[(7S,13S)-24-fluoro-(20M)-20-[2-[(1S)-1-methoxyethyl]-5-(4-methylpiperazin-1-yl)-3-pyridyl]-17,17-dimethyl-8,14-dioxo-21-(2,2,2-trifluoroethyl)-15-oxa-4-thia-9,21,27,28-tetrazapentacyclo[17.5.2.1^2,5.1^9,13.0^22,26]octacosa-1(25),2,5(28),19,22(26),23-hexaen-7-yl]carbamoyl]-2-methyl-propyl]-N-methyl-3-(2-pyrimidin-2-ylethynyl)cyclobutanecarboxamide] |
